*1 amine or outer side, *2 acyl side, *3 side chain or, on linkers, in order; H or OH if unused. Where a SMILES comes first, the peptide text is derived from it. Bridges are numbered along the chain shown (N, C = ends). Side-chain parts run from the residue outwards. [ ]: non-standard residue; d: D form. The star is where a group is joined. γGlu = O=C(O)[C@H](CCC(=O)[*:2])N[*:1]; Palmitoyl = CCCCCCCCCCCCCCCC(=O)*; Nle = CCCC[C@H](N)C(=O)O; Aib = CC(C)(N)C(=O)O
Legend:
human GCGR = target: T1, human GCGR (Homo sapiens, UniProt P47871); assay: cAMP activity assay, cells expressing human GCGR; assay type: cell-based; details: ratio of human GCGR EC50 to human GLP1R EC50
T1 construct: expressed in transfected cells
T1 sequence (P47871 26-477): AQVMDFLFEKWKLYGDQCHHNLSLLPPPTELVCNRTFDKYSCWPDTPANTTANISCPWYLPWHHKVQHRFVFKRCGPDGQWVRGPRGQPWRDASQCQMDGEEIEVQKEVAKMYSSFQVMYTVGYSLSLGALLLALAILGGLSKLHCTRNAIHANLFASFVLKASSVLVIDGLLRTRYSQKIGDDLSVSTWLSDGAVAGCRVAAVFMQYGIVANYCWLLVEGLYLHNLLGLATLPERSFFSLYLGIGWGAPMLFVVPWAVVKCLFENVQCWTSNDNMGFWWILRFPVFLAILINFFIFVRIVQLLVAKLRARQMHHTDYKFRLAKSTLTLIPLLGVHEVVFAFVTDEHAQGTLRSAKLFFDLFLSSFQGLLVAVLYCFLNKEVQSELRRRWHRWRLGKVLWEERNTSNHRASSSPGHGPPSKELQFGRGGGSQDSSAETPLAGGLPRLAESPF
Method: (§1) Activity of the peptides at the Glucagon receptor (GCGR) and GLP-1 receptor (GLP1R) was measured in a cAMP activity assay. Peptides were dissolved in 100% DMSO and serially diluted to generate 10 point titrations. The peptide solutions were then transferred into 384-well assay plates (150 nL/well). Assay ready frozen cells expressing human GLP1R or human GCGR were suspended in growth media consisting of DMEM medium (GIBCO), 10% FBS (GIBCO), 1×NEAA(GIBCO), 1×P/S (GIBCO), 10 ug/ml Blasticidin (GIBCO) and 200 μg/mL Hygromycin (GIBCO). […] The cell suspensions (15 μL) were then added to the assay plates containing the peptide solutions (30,000 cells/well for human GCGR; 10,000 cells/well for human GLP1R). […] Production of cAMP was determined using […] kits (DiscoverX) following manufacturer protocol. The plates were incubated for overnight at room temperature in the dark. Luminescence was measured using an EnVision Multilabel plate reader (Perkin Elmer). Native GLP-1 and Glucagon (Bachem) are used as control peptides.

human GLP1R = target: T2, human GLP1R (Homo sapiens, UniProt P43220); assay: cAMP activity assay, cells expressing human GLP1R; assay type: cell-based; details: cAMP production, 1 hour, table does not say whether with or without 20% human serum, read-out: GLPIR EC50 human
T2 construct: expressed in transfected cells
T2 sequence (P43220 24-463): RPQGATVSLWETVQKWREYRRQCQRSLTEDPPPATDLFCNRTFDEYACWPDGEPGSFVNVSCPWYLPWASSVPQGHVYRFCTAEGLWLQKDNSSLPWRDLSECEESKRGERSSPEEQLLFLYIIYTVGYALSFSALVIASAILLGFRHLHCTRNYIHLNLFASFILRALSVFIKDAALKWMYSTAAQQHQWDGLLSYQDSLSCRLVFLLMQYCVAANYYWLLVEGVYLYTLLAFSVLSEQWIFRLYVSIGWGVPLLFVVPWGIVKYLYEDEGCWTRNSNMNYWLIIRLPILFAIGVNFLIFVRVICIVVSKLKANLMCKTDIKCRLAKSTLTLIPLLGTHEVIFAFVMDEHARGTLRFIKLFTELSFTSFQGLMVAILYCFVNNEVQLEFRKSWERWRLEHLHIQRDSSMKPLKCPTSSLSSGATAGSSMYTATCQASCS
Method: as §1

hGCGR/hGLPIR (hTone) (human GCGR): 1.25
EC50 (human GLP1R): 170 pM
SMILES: CCCCCCCCCCCCCCCC(=O)N[C@@H](CCC(=O)N[C@@H](CCC(=O)NCCCC[C@H](NC(=O)[C@H](CC(=O)O)NC(=O)[C@H](CO)NC(=O)[C@@H](NC(=O)[C@H](Cc1ccccc1)NC(=O)[C@@H](NC(=O)CNC(=O)[C@H](CCC(N)=O)NC(=O)C(C)(C)NC(=O)[C@@H](N)Cc1c[nH]cn1)[C@@H](C)O)[C@@H](C)O)C(=O)N[C@@H](CO)C(=O)N[C@@H](CCCCN)C(=O)N[C@@H](Cc1ccc(O)cc1)C(=O)N[C@@H](CC(C)C)C(=O)N[C@@H](CC(=O)O)C(=O)NC(C)(C)C(=O)N[C@H]1CCCCNC(=O)CC[C@@H](C(=O)N[C@@H](Cc2ccccc2)C(=O)N[C@H](C(=O)N[C@@H](CCC(N)=O)C(=O)N[C@@H](Cc2c[nH]c3ccccc23)C(=O)N[C@@H](CC(C)C)C(=O)N[C@@H](CCCC)C(=O)N[C@@H](CC(=O)O)C(=O)N[C@H](C(N)=O)[C@@H](C)O)C(C)C)NC(=O)[C@H](CCC(N)=O)NC(=O)[C@H](C)NC(=O)[C@H](C)NC1=O)C(=O)O)C(=O)O [SEQ ID NO: 16] (H-H[Aib]QGTFTSDK([γGlu-γGlu-Palmitoyl])SKYLD[Aib]KAAQEFVQWL[Nle]DT-NH2; lactam 17-21; N-terminus assumed)
